# Laboratory results: patent US20190183939A1, “CELL THERAPY USING MIDBRAIN-TYPE NEURAL STEM CELLS TREATED WITH VITAMIN C” (INDUSTRY-UNIVERSITY COOPERATION FOUNDATION HANYANG …, priority 2017, published 2019)
# Assays:
# Assay type in all cases: cell-based, rat
# Nurr1 and TH promoters = experiment: DIP-qPCR and ChIP-qPCR on Nurr1 and TH promoters
# From the text: Foxa2 and Nurr1 binding sites were identified using the Jaspar database (http://jaspar.genereg.net/) using an 80% score threshold. Predicted Foxa2 and Nurr1 binding sites were coupled with phylogenetic footprinting to eliminate spurious predictions with specified position weight matrix (PWM) settings, as described in the following reference. [Sandelin, A., and Wasserman, W. W. (2004). Constrained binding site diversity within families of transcription factors enhances pattern discovery bioinformatics. Journal of molecular biology 338, 207-215] (Table 2). ChIP and DIP assays were carried out as described in the following reference. [Prolonged membrane depolarization enhances midbrain dopamine neuron differentiation via epigenetic histone modifications. Stem Cells 29, 1861-1873]. Briefly, chromatin or genomic DNA was sheared to an average of 200-500 bp in length using a sonication Bioruptor (BMS, Seoul, Korea) and immunoprecipitated using the antibodies listed in Table 1. Immunoprecipitated DNA fragments were collected using magnetic beads (Invitrogen), purified, and subjected to real-time PCR using the primers listed in Table 3. The comparative cycle threshold method was used to quantify the results. Data were normalized to the input DNA.
# [1] = test system: TH+ DA neurons differentiated from VM-NSCs; experiment: Morphologic and functional maturation of DA neurons; details: VC during expansion
# Method: To estimate morphological maturation, total fiber lengths emanating from TH+DA neuronal cells were measured. The pre-synaptic activity of DA neurons was determined by measuring the levels of DA neurotransmitter released in the differentiated VM-NSC cultures. Media incubated for 2 days (differentiation day 13-15) were collected and used in the DA level determinations using an ELISA kit (BA E-5300, LDN). In addition, DA release evoked by membrane depolarization was estimated by incubating the cultures (at differentiation day 15) in fresh N2 media in the presence or absence of 56 mM KCl for 30 min. The evoked DA release was calculated by subtracting the DA release without KCl from the DA level with KCl.
# [2] = test system: global 5hmC/5mC and H3K27m3/H3K9m3 levels in VM-NSCs; experiment: Global epigenetic code determination (dot blot, western blot, immunocytochemistry)
# Method: Cultured cells and cryosectioned brain slices were fixed with 4% paraformaldehyde (PFA), and blocked for 40 minutes in blocking solution (Blocking solution: 1% BSA+0.3% Triton X-100). For 5hmC and 5mC staining, the fixed cells were incubated with 2 N HCl for 20 minutes before the blocking reaction. The samples were incubated overnight at 4° C. in the blocking solution containing the primary antibodies listed in Supplemental Table 1. Secondary antibodies tagged with Alexa 488 (1:200, Invitrogen, Carlsbad, Calif.) and Cy3 (1:200, Jackson Immunoresearch Laboratories, West Grove, Pa.) were applied. Stained samples were mounted in Vectashield medium containing 40,6-diamidino-2-phenylindole (DAPI; Vector Laboratories, West Grove, Pa.) and analysed under an epifluorescence (Leica, Wetzlar, Germany) or confocal microscope (Leica TSP SP5).
# DNA dot blot analysis for 5hmC/5mC was performed as described in the following reference. [He, X. B., Kim, M., Kim, S. Y., Yi, S. H., Rhee, Y. H., Kim, T., Lee, E. H., Park, C. H., Dixit, S., Harrison, F. E., et al. (2015). Vitamin C facilitates dopamine neuron differentiation in fetal midbrain through TET1- and JMJD3-dependent epigenetic control manner. Stem Cells 33, 1320-1332]. Briefly, genomic DNA was extracted and quantified. Genomic DNA (80 ng) was spotted on nitrocellulose membranes, air dried, and exposed in UV for 20 minutes. After blocking with 5% bovine serum albumin (BSA)/Tris-buffered saline-Tween 20 at room temperature for 2 hours, the membrane was incubated in anti-5hmC (Active Motif, Carlsbad, Calif.) and anti-5mC (Abcam, Cambridge, UK) antibodies at 4° C. overnight. Western-blots for determining global histone modification changes were performed as described in the following reference. [Rumbaugh, G., and Miller, C. A. (2011). Epigenetic changes in the brain: measuring global histone modifications. Methods Mol Biol 670, 263-274]. […] Positive bands were detected and captured by ChemiDoc (Bio-Rad, Hercules, Calif.), and the intensities of the bands were quantified using ImageJ software (http://imagej.nih.gov/ij).
smiles,measurement,setting,value
"O=C1O[C@H]([C@@H](O)CO)C(O)=C1O [VC, L-ascorbic acid]",Nurr1 protein abundance at TH promoter,"Nurr1 and TH promoters; ChIP-qPCR, D6",significantly greater
same,Foxa2 recruitment to Nurr1 promoter regions,"Nurr1 and TH promoters; D2, culture pre-treated with VC",more abundantly recruited
same,5hmC/5mC and H3K27m3/H3K9m3 at Nurr1 promoter regions,"Nurr1 and TH promoters; from D0, compared to untreated controls",increased 5hmC levels with 5mC decreases and the decrease of H3K27m3/H3K9m3
same,total fiber lengths per TH+ DA neuron,[1]; D15,164 um
same,presynaptic DA neuronal function measured by DA release,[1]; medium 48 hr (D13-15) and KCl evoked 30 min,greater
same,synapsin+ puncta in TH+ DA neuron neurites,[1]; vs untreated control,more abundantly localized
same,global 5mC levels,[2]; D0,significant decrease
same,global levels of H3K27m3 and H3K9m3,[2]; D0,reduced
same,global 5hmC levels,"[2]; D0, immunoblotting and immunocytochemical analyses",greatly increased
